Experimental data reported in paper PMC8765437, “GSK3640254 Is a Novel HIV-1 Maturation Inhibitor with an Optimized Virology Profile” (Antimicrobial Agents and Chemotherapy, 2022).
Read-outs that look alike come from different tables or passages of the source.

Tests used:
Assay type in all cases: cell-based
HIV-1 laboratory strains = assay: Laboratory strains, reverse transcriptase activity in MT-2 cells
Description: (§1) Virus yields were measured in dose-response experiments by either luciferase activity in human T-cells (CEM-NKR-CCR5-Luc), extracellular reverse transcriptase activity in MT-2 cells (T-tropic viruses), or extracellular p24 antigen in PM1 cells (M-tropic viruses).
(§2) Multiple-cycle assays using recombinant viruses or clinical isolates were used to assess MI antiviral activity as described previously ([10]). pNLRepRlucP373S (the P373S change is in the Gag gene and converts an outlier polymorphism in the NL4-3 gene to the prevalent amino acid in the population) plasmids containing SDMs in Gag or gag/pr regions from clinical isolates were transfected into HEK 293T cells, and the supernatant containing recombinant virus was harvested after 4 to 5 days. Virus was used to infect MT-2 cells in the presence of a 3-fold serially diluted compound at a final dimethyl sulfoxide (DMSO) concentration of 1%. The inocula of the reporter viruses were determined based on the luciferase activity detected on day 4 postinfection. The MOI (ratio of infectious virions to target cells) of reporter-free laboratory strains and clinical isolates was 0.005, as derived from a tissue culture infectious dose study. Clinical isolates or reporter-free viruses were examined in the reporter CEM-NKR-CCR5-Luc cells or PBMCs at MOIs ranging from 0.005 to 0.01. Each infection started with a drug-free preincubation of the cell-virus mixtures, performed at 37°C and 5% CO2 for either 1 h at 2 times the final cell density (reporter viruses) or 1 h (reporter-free laboratory strains) or 3 h (clinical isolates) using cell pellets in 0.5 mL of medium. After preincubation, cell-virus mixtures were added to compound-containing 96-well plates for a final cell density of either 10,000 (MT-2 cells for reporter viruses), 20,000 (MT-2 and PM1 cells for reporter-free laboratory strains), 200,000 (PBMCs for clinical isolates), or 500,000 (CEM-NKR-CCR5-Luc for reporter-free laboratory strains) cells per well. The CEM-NKR-CCR5-Luc cell assay was performed in the presence of Polybrene (10 μg/mL). Virus growth was determined on days 4 to 5 postinfection for reporter variants or days 5 to 11 for the other viruses. The reporter viruses were detected by a luciferase assay according to manufacturer protocols (Brite-Glo luciferase kit [Promega] for CEM-NKR-CCR5-Luc cells and Dual-Luciferase Reporter 1000 assay system [Promega] for the other cells), and luminescence was detected on a Wallac Trilux. The growth of clinical isolates in PBMCs was quantitated by reverse transcriptase activity in a 96-well scintillation proximity assay (SPA). Twenty microliters of culture supernatants was mixed with 40 μL of reaction cocktail (62.5 mM Tris-HCl [pH 7.8], 100 mM KCl, 0.0625% NP-40, 2.5 mM dithiothreitol [DTT], 6.25 mM MgCl2, 1 mM EGTA, 6.25 μg/mL of poly rA, 2.5 μg/mL of streptavidin SPA beads prebound with biotinylated-dT12-18, and 1 μCi of [^3H]TTP). Mixtures were incubated at 37°C for ∼3 h and quenched with 100 μl of 0.25 M EDTA per well. Luminescence was detected on a Wallac Trilux programmed for tritium counting with SPA beads in opaque plates. The growth of the reporter-free laboratory M-tropic strains and clinical isolates was monitored by a p24 enzyme-linked immunosorbent assay (ELISA; PerkinElmer Life Sciences, Waltham, MA) performed on culture supernatants.
(§3) Maximal percent inhibition values were calculated as MPI = 100 – (mean signals at the 2 highest concentrations of compound/mean signal of 2 no-drug control wells) × 100.

HIV-2 strains = assay: HIV-2 strains, reverse transcriptase activity in MT-2 cells
Description: as §1
as §2, with “After preincubation, cell-virus mixtures were added to compound-containing 96-well plates for a final cell density of either 10,000 (MT-2 cells for reporter viruses), 20,000 (MT-2 and PM1 cells for reporter-free laboratory strains), 200,000 (PBMCs for clinical isolates), or 500,000 (CEM-NKR-CCR5-Luc for reporter-free laboratory strains) cells per well. The CEM-NKR-CCR5-Luc cell assay was performed in the presence of Polybrene (10 μg/mL).” left out, “Twenty microliters of culture supernatants was mixed with 40 μL of reaction cocktail (62.5 mM Tris-HCl [pH 7.8], 100 mM KCl, 0.0625% NP-40, 2.5 mM dithiothreitol [DTT], 6.25 mM MgCl2, 1 mM EGTA, 6.25 μg/mL of poly rA, 2.5 μg/mL of streptavidin SPA beads prebound with biotinylated-dT12-18, and 1 μCi of [^3H]TTP). Mixtures were incubated at 37°C for ∼3 h and quenched with 100 μl of 0.25 M EDTA per well.” left out
as §3

[1] = tested on: HIV-1 viruses containing Gag region SDMs; assay: Single-cycle infection assay with Gag SDM viruses
Description: Single-cycle infection assays were performed as described previously ([10]). Half-maximal effective concentration values were calculated as the compound concentration that inhibits 50% of the maximal signal (no-drug control), correcting for background. Background was determined as the residual signal observed upon inhibition at the highest concentration of a control protease inhibitor, nelfinavir (3 μM). Half-maximal fold change effective concentration versus WT values were calculated by dividing the EC50 of the recombinant virus by the EC50 of WT RepRlucNL4-3 virus run in parallel.

[2] = Human immunodeficiency virus 1, NL43, MT2, NL4-3, second value in cell, read-out: EC50 (converted)
[3] = Human immunodeficiency virus 2, MT2, HIV-2 287
[4] = Human immunodeficiency virus 2, MT2, HIV-2 ROD, second value in cell
[5] = Human immunodeficiency virus 1, read-out: Mean ± SD EC50, A364V
[6] = Human immunodeficiency virus 1, read-out: Mean ± SD EC50, A366V
[7] = Human immunodeficiency virus 1, read-out: Mean ± SD EC50, A366V/V370M
[8] = Human immunodeficiency virus 1, read-out: Mean ± SD EC50, H358Y/ΔT371
[9] = Human immunodeficiency virus 1, read-out: Mean ± SD EC50, I333V/V362I
[10] = Human immunodeficiency virus 1, read-out: Mean ± SD EC50, I333V/V370
[11] = Human immunodeficiency virus 1, read-out: Mean ± SD EC50, I333V/V370A
[12] = Human immunodeficiency virus 1, read-out: Mean ± SD EC50, M367V
[13] = Human immunodeficiency virus 1, read-out: Mean ± SD EC50, R361K/V362I/L363M
[14] = Human immunodeficiency virus 1, read-out: Mean ± SD EC50, T33N/V370A
[15] = Human immunodeficiency virus 1, read-out: Mean ± SD EC50, T332N/V370A
[16] = Human immunodeficiency virus 1, read-out: Mean ± SD EC50, T332S/V362I/prR41G
[17] = Human immunodeficiency virus 1, read-out: Mean ± SD EC50, V362I
[18] = Human immunodeficiency virus 1, read-out: Mean ± SD EC50, V362I/A366V
[19] = Human immunodeficiency virus 1, read-out: Mean ± SD EC50, V362I/A366V/V370M
[20] = Human immunodeficiency virus 1, read-out: Mean ± SD EC50, V362I/H219Q
[21] = Human immunodeficiency virus 1, read-out: Mean ± SD EC50, V362I/H219Q/T332S
[22] = Human immunodeficiency virus 1, read-out: Mean ± SD EC50, V362I/V370A
[23] = Human immunodeficiency virus 1, read-out: Mean ± SD EC50, V362I/V370M
[24] = Human immunodeficiency virus 1, read-out: Mean ± SD EC50, V370A
[25] = Human immunodeficiency virus 1, read-out: Mean ± SD EC50, V370M
[26] = Human immunodeficiency virus 1, read-out: Mean ± SD EC50, Wild type
[27] = Human immunodeficiency virus 1, read-out: Mean ± SD EC50, ΔV370

Structure (SMILES): C=C(C)[C@@H]1CC[C@]2(NCCN3CCS(=O)(=O)CC3)CC[C@]3(C)[C@H](CC[C@@H]4[C@@]5(C)CC=C(C6=CC[C@@](CF)(C(=O)O)CC6)C(C)(C)[C@@H]5CC[C@]43C)[C@@H]12 [GSK’254]
- EC50 (HIV-1 laboratory strains; [2]): 7.3 nM
- EC50 (HIV-2 strains; [3]): > 1390 nM
- EC50 (HIV-2 strains; [4]): 2.5 nM
- MPI ([1]; A364V): 45%
- MPI ([1]; A366V): −7.6%
- MPI ([1]; A366V/V370M): 26%
- MPI ([1]; H358Y/ΔT371): 67%
- EC50 ([1]; Human immunodeficiency virus 1, V362I/V370A): 4 nM
- EC50 [1, 5]: > 3000 nM
- EC50 [1, 6]: > 3000 nM
- EC50 [1, 7]: > 3000 nM
- EC50 [1, 8]: 35 ± 2 nM
- EC50 [1, 9]: 39 ± 5 nM
- EC50 [1, 10]: 11 ± 1 nM
- EC50 [1, 11]: 11 ± 1 nM
- EC50 [1, 12]: 15 ± 10 nM
- EC50 [1, 13]: 14 ± 2 nM
- EC50 [1, 14]: 3 nM
- EC50 [1, 15]: 4 ± 1 nM
- EC50 [1, 16]: 13 ± 9 nM
- EC50 [1, 17]: 3 ± 1 nM
- EC50 [1, 18]: > 3000 nM
- EC50 [1, 19]: > 3000 nM
- EC50 [1, 20]: 7 ± 2 nM
- EC50 [1, 21]: 8 ± 3 nM
- EC50 [1, 22]: 4 ± 1 nM
- EC50 [1, 23]: 4 ± 2 nM
- EC50 [1, 24]: 2 ± 1 nM
- EC50 [1, 25]: 2 ± 1 nM
- EC50 [1, 26]: 3 ± 2 nM
- EC50 [1, 27]: 8 nM
- MPI ([1]; I333V/V362I): 65%
- MPI ([1]; I333V/V370): 86%
- MPI ([1]; I333V/V370A): 86%
- MPI ([1]; M367V): 89%
- MPI ([1]; R361K/V362I/L363M): 89%
- MPI ([1]; T33N/V370A): 94%
- MPI ([1]; T332N/V370A): 94%
- MPI ([1]; T332S/V362I/prR41G): 88%
- MPI ([1]; V362I): 89%
- MPI ([1]; V362I/A366V): −96%
- MPI ([1]; V362I/A366V/V370M): 1%
- MPI ([1]; V362I/H219Q): 91%
- MPI ([1]; V362I/H219Q/T332S): 91%
- MPI ([1]; V362I/V370A): 91%
- MPI ([1]; V362I/V370M): 90%
- MPI ([1]; V370A): 97%
- MPI ([1]; V370M): 93%
- MPI ([1]; Wild type): 98%
- MPI ([1]; ΔV370): 96%

Structure (SMILES): C=C(C)[C@@H]1CC[C@]2(NCCN3CCS(=O)(=O)CC3)CC[C@]3(C)[C@H](CC[C@@H]4[C@@]5(C)CC=C(c6ccc(C(=O)O)cc6)C(C)(C)[C@@H]5CC[C@]43C)[C@@H]12 [GSK’795, reference compound]
- EC50 (HIV-1 laboratory strains; Human immunodeficiency virus 1, HXB2, MT2, HXB2, footnote b: RT activity in MT-2 cells, read-out: GSK’795 EC50 ± SD): 9.3 ± 3.9 nM
- EC50 (HIV-1 laboratory strains; Human immunodeficiency virus 1, IIIB, MT2, IIIB, footnote b: RT activity in MT-2 cells, read-out: GSK’795 EC50 ± SD): 2.5 ± 0.8 nM
- EC50 (HIV-1 laboratory strains; Human immunodeficiency virus 1, MT2, LAI, footnote b: RT activity in MT-2 cells, read-out: GSK’795 EC50 ± SD): 2.4 ± 0.8 nM
- EC50 (HIV-1 laboratory strains; Human immunodeficiency virus 1, MT2, MN, footnote b: RT activity in MT-2 cells, read-out: GSK’795 EC50 ± SD): 1 nM
- EC50 (HIV-1 laboratory strains; Human immunodeficiency virus 1, MT2, RF, head footnote b: RT activity in MT-2 cells unless otherwise noted, read-out: GSK’795 EC50 ± SD): 6.9 ± 2.8 nM
- EC50 (HIV-1 laboratory strains; Human immunodeficiency virus 1, NL43, MT2, NL4-3, first value in cell, footnote b: RT activity in MT-2 cells, read-out: GSK’795 EC50 ± SD): 3.9 ± 2.2 nM
- EC50 (HIV-1 laboratory strains; [2]): 19 nM
- EC50 (HIV-2 strains; [3]): 751 nM
- EC50 (HIV-2 strains; [4]): 17 nM
- MPI ([1]; A364V): 8%
- MPI ([1]; A366V): 3%
- MPI ([1]; A366V/V370M): 3%
- MPI ([1]; H358Y/ΔT371): 18%
- EC50 [1, 5]: > 3000 nM
- EC50 [1, 6]: > 3000 nM
- EC50 [1, 7]: > 3000 nM
- EC50 [1, 8]: > 3000 nM
- EC50 [1, 9]: > 3000 nM
- EC50 [1, 10]: > 3000 nM
- EC50 [1, 11]: > 3000 nM
- EC50 [1, 12]: > 3000 nM
- EC50 [1, 13]: > 3000 nM
- EC50 [1, 14]: 30 nM
- EC50 [1, 15]: 30 nM
- EC50 [1, 16]: > 3000 nM
- EC50 [1, 17]: 14 ± 6 nM
- EC50 [1, 18]: > 3000 nM
- EC50 [1, 19]: > 3000 nM
- EC50 [1, 20]: 66 nM
- EC50 [1, 21]: 710 nM
- EC50 [1, 22]: > 3000 nM
- EC50 [1, 23]: > 3000 nM
- EC50 [1, 24]: 6 nM
- EC50 [1, 25]: 13 ± 11 nM
- EC50 [1, 26]: 5 ± 3 nM
- EC50 [1, 27]: 110 nM
- MPI ([1]; I333V/V362I): −30%
- MPI ([1]; I333V/V370): −36%
- MPI ([1]; I333V/V370A): 10%
- MPI ([1]; M367V): 36%
- MPI ([1]; R361K/V362I/L363M): 36%
- MPI ([1]; T33N/V370A): 70%
- MPI ([1]; T332N/V370A): 70%
- MPI ([1]; T332S/V362I/prR41G): −30%
- MPI ([1]; V362I): 68%
- MPI ([1]; V362I/A366V): −109%
- MPI ([1]; V362I/A366V/V370M): −62%
- MPI ([1]; V362I/H219Q): 60%
- MPI ([1]; V362I/H219Q/T332S): 52%
- MPI ([1]; V362I/V370A): 31%
- MPI ([1]; V362I/V370M): 51%
- MPI ([1]; V370A): 84%
- MPI ([1]; V370M): 78%
- MPI ([1]; Wild type): 94%
- MPI ([1]; ΔV370): 60%
